# According to PMC10349806 (Nature Communications, 2023):
# Values joined by “and” are separate entries in the source; they are usually repeats but may differ in a detail not shown here. Identical values can stand only once.
# Experiments:
# PfCRT variant F291A = molecular target: T1, PfCRT variant F291A (Plasmodium falciparum, UniProt Q9N623, A220S/F291A/I356T/K76T/M74I/N326S/N75E/Q271E/R371I); experiment: CQ uptake assay, oocytes expressing F291A; assay type: cell-based
# T1 sequence (Q9N623 1-424 M74I/N75E/K76T/A220S/Q271E/F291A/N326S/I356T/R371I): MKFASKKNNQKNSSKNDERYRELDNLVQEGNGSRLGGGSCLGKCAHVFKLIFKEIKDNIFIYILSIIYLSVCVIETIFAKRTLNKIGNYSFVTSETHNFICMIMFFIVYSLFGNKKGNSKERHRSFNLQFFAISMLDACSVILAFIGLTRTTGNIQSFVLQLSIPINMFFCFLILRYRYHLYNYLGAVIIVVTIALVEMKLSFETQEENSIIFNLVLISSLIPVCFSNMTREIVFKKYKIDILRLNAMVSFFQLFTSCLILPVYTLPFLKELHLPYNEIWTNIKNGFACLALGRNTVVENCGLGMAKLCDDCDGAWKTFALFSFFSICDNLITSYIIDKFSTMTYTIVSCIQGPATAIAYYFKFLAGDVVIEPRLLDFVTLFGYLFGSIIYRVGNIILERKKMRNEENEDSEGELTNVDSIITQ
# Method: (§1) Site-directed mutagenesis of PfCRT^Dd2 was performed as described using the megaprimer method with overlap extension[21],[54]. The primer pairs used are listed in Supplementary Table 6. Please note that a codon-optimized and oocyte-adapted version of PfCRT^Dd2 was used[22] (Supplementary Fig. 16). The resulting DNA fragment was cloned into the SP64T expression vector and verified by sequencing.
# (§2) Oocytes were obtained as described previously. Briefly, adult (>2 years old) female X. laevis frogs (NASCO) were anesthetized in a cooled solution of ethyl 3-amino benzoate methanesulfonate (0.1%, w/v), followed by a surgical removal of parts of the ovary. The ovary lobes were carefully dissected and small pieces of oocytes were incubated in Ca^2+-free ND96 buffer (96 mM NaCl, 2 mM KCl, 1 mM MgCl2 buffered with 5 mM HEPES/NaOH, pH 7.5) supplemented with collagenase D (0.1%, w/v; Roche), BSA (0.5%, w/v), and 9 mm Na2HPO4 at 18 °C for 14-16 h while gentle shaking. After incubation, the oocytes were carefully washed several times with ND96 buffer (96 mM NaCl, 2 mM KCl, 1.8 mM CaCl2, 1 mM MgCl2 buffered with 5 mM HEPES/NaOH, pH 7.5) supplemented with 100 mg l^−1 gentamycin). Defolliculated and healthy-looking stage V-VI oocytes were manually selected for RNA microinjection. The RNA was generated as following: The codon-optimized sequences of PfCRT variants were cloned into the pSP64T expression vector. After vector linearization using the restriction endonucleases BamHI or SalI (New England Biolabs), transcription was performed using the in vitro SP6 mMessage mMachine Kit (Ambion)[34]. The obtained RNA was kept at −80 °C and diluted with nuclease-free water to a concentration of 0.6 μg μl^−1. Precision-bore glass capillary tubes (3.5-inch glass capillaries; Drummond Scientific Co.) were pulled on a vertical puller (P-87 Flaming/Brown micropipette puller, Sutter Instrument Co.), graduated, and placed on a microinjector (Nanoject II Auto-Nanoliter Injector, Drummond Scientific Co.). 50 nl of nuclease-free water alone (control oocytes) or 50 nl of 0.6 μg μl^−1 RNA were injected under stereomicroscopic control. Injected oocytes were incubated for 46–72 h at 18 °C with twice-daily buffer changes before usage in experiments.
# Drug uptake assays were performed as described previously[21],[22],[24],[34]. […] The direction of radio-labeled drug transport is here from the mostly acidic extracellular solution (pH 4.5 or 6.0, as indicated) into the oocyte cytosol (pH ∼ 7.2), which corresponds to the efflux of drug from the acidic digestive vacuole (pH 5.2) into the parasite cytoplasm (pH 7.2). The topology of PfCRT in the oolemma is such that both the N- and C-terminus face the extracellular milieu[3],[22]. In the parasite, the N- and C-terminus face the lumen of the digestive vacuole. CQ uptake kinetics were performed by incubating oocytes in ND96 buffer adjusted to a pH of 4.5, 5.0, 5.5, or 6.0 and supplemented with 50 nM [^3H]CQ and one of 7 different CQ concentrations (10 µM, 50 µM, 100 µM, 200 µM, 300 µM, 400 µM, 500 µM CQ). The reaction was stopped at the 60 min time point, which is in the linear uptake range[22],[34] (Supplementary Fig. 17). […] The radioactivity of each sample was measured using a liquid scintillation analyzer Tri-Carb 4910 TR (PerkinElmer). Oocytes that were injected with water instead of RNA were analyzed in parallel, representing the uptake of a drug by diffusion and/or endogenous permeation pathways. […]
# PfCRT variant E207K/K80E = experiment: CQ uptake assay, oocytes expressing E207K/K80E; assay type: cell-based, Plasmodium falciparum
# Method: as §1, §2
# Drug uptake assays were performed as described previously[21],[22],[24],[34]. […] The radioactivity of each sample was measured using a liquid scintillation analyzer Tri-Carb 4910 TR (PerkinElmer). Oocytes that were injected with water instead of RNA were analyzed in parallel, representing the uptake of a drug by diffusion and/or endogenous permeation pathways. […]
# [1] = F291A, 50 µM CQ, 1 h, mean ± SEM
# [2] = E207K/K80E, 50 µM CQ, 1 h, mean ± SEM
structure (smiles),measurement,setting,value
"CCN(CC)CCCC(C)Nc1ccnc2cc(Cl)ccc12 (stereo not drawn) [CQ, chloroquine]",Activity at pH 4.5,PfCRT variant F291A; [1],1.61 ± 0.31 pmol h-1 oocyte-1
same,Activity at pH 6.0,PfCRT variant F291A; [1],3.23 ± 0.24 pmol h-1 oocyte-1
same,R-value,"PfCRT variant F291A; F291A, CQ transport at pH 4.5 / pH 6.0",0.52 ± 0.11
same,F291A transport activity pH 4.5,"PfCRT variant F291A; pH 4.5, single replicates, Fig 1d left",1.94 pmol oocyte-1 h-1 and 2.47 pmol oocyte-1 h-1 and 0.96 pmol oocyte-1 h-1 and 1.07 pmol oocyte-1 h-1
same,F291A transport activity pH 6.0,"PfCRT variant F291A; pH 6.0, single replicates, Fig 1d left",2.78 pmol oocyte-1 h-1 and 3.29 pmol oocyte-1 h-1 and 4.00 pmol oocyte-1 h-1 and 2.84 pmol oocyte-1 h-1
same,Activity at pH 4.5,PfCRT variant E207K/K80E; [2],1.85 ± 0.84 pmol h-1 oocyte-1
same,Activity at pH 6.0,PfCRT variant E207K/K80E; [2],4.75 ± 0.91 pmol h-1 oocyte-1
same,E207K/K80E transport activity pH 4.5,"PfCRT variant E207K/K80E; pH 4.5, individual replicates (Fig 6a)",3.47 pmol oocyte-1 h-1 and 1.46 pmol oocyte-1 h-1 and 0.63 pmol oocyte-1 h-1
same,E207K/K80E transport activity pH 6.0,"PfCRT variant E207K/K80E; pH 6.0, individual replicates (Fig 6a)",6.4 pmol oocyte-1 h-1 and 4.59 pmol oocyte-1 h-1 and 3.25 pmol oocyte-1 h-1
